Measured values as given in patent US11958821B2, “Phenethylamine compounds salts, polymorphic forms and methods of use thereof” (Terran Biosciences Inc., priority 2021, dated 2024).

Experiments:
[1] = test system: participants diagnosed with at least moderate post-traumatic stress disorder (PTSD); assay: Double-blind, randomized, placebo-controlled clinical trial of MDE-assisted psychotherapy in PTSD; type: in vivo, human; conditions: for Daytime sleepiness (ESS) / Clinician-rated functional impairment score (SDS) / Depression (HAM-D) / Change in CAPS-5 assessment: Study Conclusion; for Clinician-rated functional impairment score (SDS) / Depression (HAM-D) / Change in CAPS-5 assessment: vs placebo; for Change in CAPS-5 assessment: hydrochloride salt with psychotherapy; for Total dosage of drug to achieve significant mean reduction in CAPS-5: vs racemic MDE-treated subgroup
Experimental: A multicenter, randomized, double-blind, placebo-controlled trial is conducted to assess the efficacy and safety of MDE-assisted psychotherapy versus psychotherapy with placebo control in participants diagnosed with at least moderate post-traumatic stress disorder (PTSD).
This multicenter, randomized, double-blind, placebo-controlled trial is conducted at various sites in the United States with IRB approval from each study site. A flexible dose of MDE hydrochloride salt or placebo, followed by a supplemental half-dose unless contraindicated by patient's previous response or medical history, is also administered during the Treatment Period with psychotherapy in at least 3 blinded monthly Experimental Sessions. The Supplemental Dose extends the duration of drug effects on the participants during an Experimental Session. MDE test groups are further subdivided into specific groups receiving only racemic MDE hydrochloride salt, S-MDE hydrochloride salt, or R-MDE hydrochloride salt. An optional Risk Evaluation and Mitigation Strategy (REMS) Protocol may be implemented for the racemic MDE, R-MDE, and placebo-groups. The Treatment Period lasts for approximately 12 weeks. During the Treatment Period, each Experimental Session is followed by three Intervening Sessions of non-drug psychotherapy. Each Experimental Session involves an overnight stay. The Primary Outcome measure, the change in Clinician Administered PTSD Scale for DSM-5 (CAPS-5), is determined by a blinded Independent Rater (IR) pool multiple times throughout the study. The study consists of separate periods for each participant. Initially, prospective participants undergo a Screening Period involving an initial eligibility assessment, a medical history intake, informed consent, and enrollment of eligible participants. Next, a Preparation Period is undertaken for enrolled participants involving medication tapering and clinical baseline assessments to confirm each participant meets enrollment criteria. As part of the Preparation Period, a detailed assessment of co-morbidities to PTSD is recorded. Participants may remain on prescribed courses of selective serotonin reuptake inhibitor (SSRI) or serotonin and norepinephrine reuptake inhibitor (SNRI) treatment. Dosages and/or frequency of administration of a prescribed SSRI or SNRI may be adjusted to fit within study parameters. Participants may be required to taper a prescribed course of medication in order to maintain eligibility within the study. The Treatment Period consists of three monthly Experimental Sessions and associated Intervening Sessions of integrative behavioral psychotherapy. The Treatment Period lasts approximately 12 weeks. Following the Treatment Period is a Follow-up Period and Study Conclusion. During the Follow-up Period and Study Conclusion, participants complete 4 weeks with no study visits, followed by a Study Conclusion visit.
This study compares the effects of three blinded Experimental Sessions of psychotherapy in combination with flexible doses of MDE or placebo administered as described below. Non-drug preparatory and intervening psychotherapy sessions are also included. Patient's weight is determined for dosage calculation. Initial dose is 100 mg unless this will result in a dosage of less than 1.5 mg/kg of patient weight. Initial dose thereby adjusted upward in 25 mg increments to deliver the lowest dose possible of at least 1.5 mg/kg of patient weight. Initial dose for Experimental Session 2 and 3 is cumulative dose calculated by adding the initial dose plus REMS protocol dose used the previous Experimental Session for each patient.
Randomization occurs prior to the initiation of Experimental Session 1. Each participant is provided the next randomized number in a sequence by a blinded study monitor. Participants are then randomized, according to a computer-generated randomization schedule, 1:1:1:1 to racemic MDE, S-MDE, R-MDE, or placebo. […]

[2] = test system: Male Sprague-Dawley rats; assay: Rat elevated zero-maze study with racemic MDE, R-MDE, S-MDE and chlordiazepoxide; conditions: for Percentage of time spent in the open arms (% TO), significance vs placebo / Percentage of time spent in the open arms (% TO), trend: 2.5-30 mg/kg ip
Experimental: A reduction in the amount of activity on the open areas is considered to reflect an increase in anxiety. The ethologically-based behavior, stretched attend postures (SAP) from closed to open quadrants, is assessed as an index of anxiety. […] Animals
Male Sprague-Dawley 200-250 g (Envigo UK) rats were used. Animals were group-housed (5 per cage; cage size: 40×40×20 cm) in a temperature-controlled environment (22±2° C.), under a 12 h light-dark cycle (lights on: 08:00 hours) for one week prior to testing. Food and water were freely available. Number of animals per group=5.
The elevated 0-maze comprises a black Perspex annular platform (105 cm diameter, 10 cm width) elevated to 65 cm above ground level, divided equally into four quadrants. Two opposite quadrants are enclosed by clear red Perspex walls (27 cm high) on both the inner and outer edges of the platform, while the remaining two opposite quadrants are surrounded only by a Perspex “lip” (1 cm high) which serves as a tactile guide to animals on these open areas.
Subjects were weighed and tail marked before being injected. After a specified pretreatment time, subjects were placed in a closed quadrant and a 5-min test period were recorded on videotape for subsequent analysis. The maze was cleaned with 5% methanol/water solution and dried thoroughly between test sessions. Behavioural measures comprise percentage time spent on the open areas (% TO) and frequency of stretched attend postures (SAP) from closed to open quadrants. Animals are scored as being in the open area when all four paws were in an open quadrant and in the closed area only when all four paws have passed over the open-closed divide.
Thirty min later at T=0, rats were individually placed in a closed arm of the zero-maze and behavior was assessed by a “blind” observer using remote video monitoring over the subsequent 5 min. The animal was then removed and the maze carefully wiped with 5% methanol/water solution before the next test was begun.
Thirty min later at T=0, rats were individually placed in a closed arm of the zero-maze and behavior assessed by a “blind” observer using remote video monitoring over the subsequent 5 min. The animal was then removed and the maze carefully wiped with 5% methanol/water solution before the next test was begun.

[3] = Dynamic vapor sorption (DVS) analysis with post-DVS XRPD; type: physicochemical
Experimental: DVS analysis was carried out using a TA Instruments Q5000 Dynamic Vapor Sorption analyzer. The instrument was calibrated with standard weights and a sodium bromide standard for humidity. Approximately 5-25 mg of sample was loaded into a metal-coated quartz pan for analysis. The sample was analyzed at 25° C. with a maximum equilibration time of one hour in 10% relative humidity (RH) steps from 5 to 95% RH (adsorption cycle) and from 95 to 5% RH (desorption cycle). The movement from one step to the next occurred either after satisfying the equilibrium criterion of 0.01% weight change or, if the equilibrium criterion was not met, after one hour. The percent weight change values were calculated using Microsoft Excel®.

[4] = highest dose, ip, 30 min before 5-min test

Compound	Daytime sleepiness (ESS) [1]	Clinician-rated functional impairment score (SDS) [1]	Depression (HAM-D) [1]	Change in CAPS-5 assessment [1]	Frequency of stretched attend postures (SAP) ([2]; 2.5 mg/kg ip)	Frequency of stretched attend postures (SAP) ([2]; 5 mg/kg ip)	Frequency of stretched attend postures (SAP) ([2]; 10 mg/kg ip)	Frequency of stretched attend postures (SAP) ([2]; 15 mg/kg ip)	Frequency of stretched attend postures (SAP) ([2]; 30 mg/kg ip)	Percentage of time spent in the open arms (% TO), significance vs placebo [2]	Percentage of time spent in the open arms (% TO), trend [2]	Frequency of stretched attend postures (SAP) [2, 4]	Hygroscopicity by DVS ([3]; 25° C., 5 to 95% RH, listed as MBDB Maleate Form 1)	DVS weight gain ([3]; at 95% RH)	Post-DVS XRPD (form change) ([3]; solids after DVS analysis)	Total dosage of drug to achieve significant mean reduction in CAPS-5 [1]	Adverse anxiogenic incidents ([1]; vs placebo-treated controls)	Percentage of time spent in the open arms (% TO) ([2]; 15 mg/kg ip)	Frequency of stretched attend postures (SAP) ([2]; 20 mg/kg ip)	Frequency of stretched attend postures (SAP) ([2]; any dose vs placebo)
CCNC(C)Cc1ccc2c(c1)OCO2 (racemic) [racemic MDE, N-ethyl-3,4-methylenedioxyamphetamine]	significant improvement in lessening daytime sleepiness	significant improvement in clinician-rated functional impairment score	significant improvement depression	significant mean reduction in CAPS-5 assessment compared to the placebo group	significant increase in SAPs	did not show any difference from placebo	dose dependent decrease in SAPs and a significant anxiolytic effect	dose dependent decrease in SAPs and a significant anxiolytic effect	dose dependent decrease in SAPs and a significant anxiolytic effect	did not show significant changes when compared to placebo	trended towards reduced time in the open arms	decreased the frequency of SAPs as effectively as the benzodiazepine chlordiazepoxide								
CCC(Cc1ccc2c(c1)OCO2)NC.O=C(O)/C=C\C(=O)O (stereo not drawn) [MBDB maleate Form 1]													slightly hygroscopic	0.6%	no form change					
CCN[C@H](C)Cc1ccc2c(c1)OCO2 [R-MDE, (R)—N-ethyl-3,4-methylenedioxyamphetamine]	significant improvement in lessening daytime sleepiness	significant improvement in clinician-rated functional impairment score	significant improvement depression	significant mean reduction in CAPS-5 assessment compared to the placebo group	increase in the number of SAPs at the 2.5 mg/kg dose which trended towards significance	increase in SAPs at the 5 mg/kg dose range as well which trended toward significance	not significantly different from placebo	not significantly different from placebo	significant reduction in SAPs	did not show significant changes when compared to placebo	trended towards reduced time in the open arms	decreased the frequency of SAPs as effectively as the benzodiazepine chlordiazepoxide				lower total dosage of drug compared to the racemic MDE-treated subgroup				
CCN[C@@H](C)Cc1ccc2c(c1)OCO2 [S-MDE, (S)—N-ethyl-3,4-methylenedioxyamphetamine]	significant improvement in lessening daytime sleepiness	significant improvement in clinician-rated functional impairment score	significant improvement depression	significant mean reduction in CAPS-5 assessment compared to the placebo group		significantly decreased the number of SAPs	significantly decreased the number of SAPs	significantly decreased the number of SAPs		did not show significant changes when compared to placebo		decreased the frequency of SAPs as effectively as the benzodiazepine chlordiazepoxide				lower total dosage of drug compared to the racemic MDE-treated subgroup	without a significant increase in adverse anxiogenic incidents	large numerical increase in time in the open arms	significantly decreased the number of SAPs	did not increase the number of SAPs beyond placebo at any dose
